Consider five compounds from patent US20260356819A1, “OXOISOINDOLINYL-SUBSTITUTED […] DERIVATIVE AND USE THEREOF” (GLUETACS THERAPEUTICS (SHANGHAI) CO., LTD., priority 2023, published 2026).

Holding throughout (format): cell-based
Holding throughout (settings): compounds at 50 nM and 500 nM

One experiment concerns the target T1, GSPT1 (Homo sapiens, UniProt P15170+Q96SW2).
T1 construct: The supernatant was aspirated as the extracted total cell protein; endogenous in cells; host or cells: human peripheral blood mononuclear cells (hPBMCs)
Kind of experiment: Western blot degradation of GSPT1 in hPBMCs (24 h). The procedure, abridged:
(§1)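 In this assay, each compound was incubated with human PBMCs for 24 h at 50 nM and 500 nM. Target levels were measured by Western blot densitometry normalised to an internal control.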
In general terms: In western blotting, separated proteins are transferred to a membrane and probed.

Another experiment concerns the target T2, IKZF2 (Homo sapiens, UniProt Q96SW2+Q9UKS7).
T2 construct: The supernatant was aspirated as the extracted total cell protein; endogenous in cells; host or cells: human peripheral blood mononuclear cells (hPBMCs)
In words: Western blot degradation of IKZF2 in hPBMCs (24 h). In short, it runs like this: as §1

A further experiment concerns the target T3, WEE1 (Homo sapiens, UniProt P30291+Q96SW2).
T3 construct: The supernatant was aspirated as the extracted total cell protein; endogenous in cells; host or cells: human peripheral blood mononuclear cells (hPBMCs)
In words: Western blot degradation of WEE1 in hPBMCs (24 h). The procedure, abridged:
as §1

The target in a further experiment is T4, IKZF3 (Homo sapiens, UniProt Q96SW2+Q9UKT9).
T4 construct: The supernatant was aspirated as the extracted total cell protein; endogenous in cells; host or cells: human peripheral blood mononuclear cells (hPBMCs)
In words: Western blot degradation of IKZF3 in hPBMCs (24 h). In short, it runs like this: as §1

The target of the next experiment is T5, CK1α (Homo sapiens, UniProt P48729+Q96SW2).
T5 construct: The supernatant was aspirated as the extracted total cell protein; endogenous in cells; host or cells: human peripheral blood mononuclear cells (hPBMCs)
Kind of experiment: Western blot degradation of CK1α in hPBMCs (24 h). The procedure, abridged:
as §1

The target in another experiment is T6, IKZF1 (Homo sapiens, UniProt Q13422+Q96SW2).
T6 construct: The supernatant was aspirated as the extracted total cell protein; endogenous in cells; host or cells: human peripheral blood mononuclear cells (hPBMCs)
Kind of experiment: Western blot degradation of IKZF1 in hPBMCs (24 h). The procedure, abridged:
as §1

T1 sequence (P15170 whole entry): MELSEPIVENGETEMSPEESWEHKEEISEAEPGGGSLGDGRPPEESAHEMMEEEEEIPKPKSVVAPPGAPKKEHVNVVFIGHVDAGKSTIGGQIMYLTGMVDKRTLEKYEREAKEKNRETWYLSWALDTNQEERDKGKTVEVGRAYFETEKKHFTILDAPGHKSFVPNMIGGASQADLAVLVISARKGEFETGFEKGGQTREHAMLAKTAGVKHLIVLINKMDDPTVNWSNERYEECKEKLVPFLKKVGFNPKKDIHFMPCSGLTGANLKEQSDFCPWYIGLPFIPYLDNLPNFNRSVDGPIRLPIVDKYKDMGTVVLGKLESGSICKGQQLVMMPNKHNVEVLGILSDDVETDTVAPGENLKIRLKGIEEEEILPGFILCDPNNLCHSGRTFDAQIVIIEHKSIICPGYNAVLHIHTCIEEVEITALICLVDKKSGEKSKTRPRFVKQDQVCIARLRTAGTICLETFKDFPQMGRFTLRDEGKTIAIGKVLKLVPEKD
T1 sequence (Q96SW2 whole entry): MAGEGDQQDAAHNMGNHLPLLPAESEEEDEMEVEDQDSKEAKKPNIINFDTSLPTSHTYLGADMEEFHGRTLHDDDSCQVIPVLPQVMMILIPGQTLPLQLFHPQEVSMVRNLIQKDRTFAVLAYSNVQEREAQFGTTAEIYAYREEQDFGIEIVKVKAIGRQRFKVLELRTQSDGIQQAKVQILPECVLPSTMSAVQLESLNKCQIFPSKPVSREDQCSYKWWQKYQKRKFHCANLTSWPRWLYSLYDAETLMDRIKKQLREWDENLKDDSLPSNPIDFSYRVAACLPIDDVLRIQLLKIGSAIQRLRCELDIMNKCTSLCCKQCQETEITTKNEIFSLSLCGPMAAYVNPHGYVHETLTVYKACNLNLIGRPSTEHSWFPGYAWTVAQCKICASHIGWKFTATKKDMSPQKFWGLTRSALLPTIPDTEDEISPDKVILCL
T1 sequence (Q16531 whole entry partner): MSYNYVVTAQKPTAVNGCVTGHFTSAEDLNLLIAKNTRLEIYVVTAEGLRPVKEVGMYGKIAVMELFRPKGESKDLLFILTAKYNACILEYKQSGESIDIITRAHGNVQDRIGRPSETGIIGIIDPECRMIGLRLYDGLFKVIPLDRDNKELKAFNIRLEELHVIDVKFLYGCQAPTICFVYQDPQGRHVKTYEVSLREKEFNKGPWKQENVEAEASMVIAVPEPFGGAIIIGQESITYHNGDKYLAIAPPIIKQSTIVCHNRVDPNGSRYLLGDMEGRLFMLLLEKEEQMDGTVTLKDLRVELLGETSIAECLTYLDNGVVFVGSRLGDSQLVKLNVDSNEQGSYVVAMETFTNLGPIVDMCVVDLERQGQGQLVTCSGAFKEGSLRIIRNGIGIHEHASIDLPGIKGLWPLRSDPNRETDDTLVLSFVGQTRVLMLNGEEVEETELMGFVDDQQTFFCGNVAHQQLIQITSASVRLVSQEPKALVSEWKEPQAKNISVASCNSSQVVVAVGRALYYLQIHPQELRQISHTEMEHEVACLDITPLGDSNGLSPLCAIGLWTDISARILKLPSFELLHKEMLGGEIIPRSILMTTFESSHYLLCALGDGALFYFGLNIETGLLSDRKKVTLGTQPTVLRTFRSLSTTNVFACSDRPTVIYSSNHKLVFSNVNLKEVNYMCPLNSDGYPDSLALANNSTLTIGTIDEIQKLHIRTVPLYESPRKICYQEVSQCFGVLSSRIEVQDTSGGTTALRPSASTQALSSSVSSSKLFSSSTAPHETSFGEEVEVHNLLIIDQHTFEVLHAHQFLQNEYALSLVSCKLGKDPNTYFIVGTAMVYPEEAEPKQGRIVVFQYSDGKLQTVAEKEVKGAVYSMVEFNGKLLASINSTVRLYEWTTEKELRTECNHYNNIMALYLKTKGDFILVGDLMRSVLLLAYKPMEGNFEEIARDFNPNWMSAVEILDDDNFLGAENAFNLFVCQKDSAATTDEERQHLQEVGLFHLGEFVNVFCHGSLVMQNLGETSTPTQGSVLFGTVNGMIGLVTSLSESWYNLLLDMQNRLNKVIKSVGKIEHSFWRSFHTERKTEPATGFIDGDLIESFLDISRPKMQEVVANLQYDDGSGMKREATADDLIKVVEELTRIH
T4 sequence (Q9UKT9 whole entry): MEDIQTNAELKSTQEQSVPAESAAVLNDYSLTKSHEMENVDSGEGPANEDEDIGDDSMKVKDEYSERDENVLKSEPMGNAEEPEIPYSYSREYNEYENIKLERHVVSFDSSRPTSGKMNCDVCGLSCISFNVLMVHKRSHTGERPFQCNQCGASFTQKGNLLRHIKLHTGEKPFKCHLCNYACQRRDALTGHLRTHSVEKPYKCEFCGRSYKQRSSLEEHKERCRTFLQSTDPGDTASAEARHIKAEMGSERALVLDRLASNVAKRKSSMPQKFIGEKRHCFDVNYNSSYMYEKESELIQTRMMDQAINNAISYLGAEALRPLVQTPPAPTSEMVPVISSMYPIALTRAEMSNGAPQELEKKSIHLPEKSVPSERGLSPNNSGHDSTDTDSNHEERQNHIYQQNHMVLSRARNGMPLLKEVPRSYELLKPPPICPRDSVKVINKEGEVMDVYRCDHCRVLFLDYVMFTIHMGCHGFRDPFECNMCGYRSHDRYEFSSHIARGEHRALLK
T4 sequence (Q96SW2 whole entry): as the sequence (Q96SW2 whole entry) above
T4 sequence (Q16531 whole entry partner): as the sequence (Q16531 whole entry partner) above
T3 sequence (P30291 whole entry): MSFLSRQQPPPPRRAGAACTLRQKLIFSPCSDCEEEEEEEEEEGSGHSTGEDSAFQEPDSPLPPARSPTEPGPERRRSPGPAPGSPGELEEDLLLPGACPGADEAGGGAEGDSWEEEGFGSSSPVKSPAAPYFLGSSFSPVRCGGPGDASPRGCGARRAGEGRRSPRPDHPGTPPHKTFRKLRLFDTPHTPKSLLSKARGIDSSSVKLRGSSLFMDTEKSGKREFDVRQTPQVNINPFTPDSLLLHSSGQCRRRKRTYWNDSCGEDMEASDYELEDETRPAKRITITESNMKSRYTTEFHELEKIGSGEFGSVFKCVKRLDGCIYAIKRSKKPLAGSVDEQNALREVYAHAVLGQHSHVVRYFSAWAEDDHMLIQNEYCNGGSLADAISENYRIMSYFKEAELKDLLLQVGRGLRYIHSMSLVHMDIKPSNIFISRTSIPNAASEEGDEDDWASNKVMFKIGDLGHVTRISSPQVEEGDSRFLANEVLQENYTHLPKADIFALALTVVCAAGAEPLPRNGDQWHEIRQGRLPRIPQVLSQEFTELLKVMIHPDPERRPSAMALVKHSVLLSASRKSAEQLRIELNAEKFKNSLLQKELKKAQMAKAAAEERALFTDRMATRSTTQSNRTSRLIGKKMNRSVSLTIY
T3 sequence (Q96SW2 whole entry): as the sequence (Q96SW2 whole entry) above
T3 sequence (Q16531 whole entry partner): as the sequence (Q16531 whole entry partner) above
T5 sequence (P48729 whole entry): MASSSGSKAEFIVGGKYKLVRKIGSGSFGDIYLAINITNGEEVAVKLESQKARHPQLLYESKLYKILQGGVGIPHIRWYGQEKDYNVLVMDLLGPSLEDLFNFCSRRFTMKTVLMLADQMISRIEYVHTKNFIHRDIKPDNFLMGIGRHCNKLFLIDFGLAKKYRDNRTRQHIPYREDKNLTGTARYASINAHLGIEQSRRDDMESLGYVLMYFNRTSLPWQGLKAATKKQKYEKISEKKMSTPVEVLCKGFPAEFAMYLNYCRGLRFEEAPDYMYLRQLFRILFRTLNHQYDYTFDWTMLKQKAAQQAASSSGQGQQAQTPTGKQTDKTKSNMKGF
T5 sequence (Q96SW2 whole entry): as the sequence (Q96SW2 whole entry) above
T5 sequence (Q16531 whole entry partner): as the sequence (Q16531 whole entry partner) above
T6 sequence (Q13422 whole entry): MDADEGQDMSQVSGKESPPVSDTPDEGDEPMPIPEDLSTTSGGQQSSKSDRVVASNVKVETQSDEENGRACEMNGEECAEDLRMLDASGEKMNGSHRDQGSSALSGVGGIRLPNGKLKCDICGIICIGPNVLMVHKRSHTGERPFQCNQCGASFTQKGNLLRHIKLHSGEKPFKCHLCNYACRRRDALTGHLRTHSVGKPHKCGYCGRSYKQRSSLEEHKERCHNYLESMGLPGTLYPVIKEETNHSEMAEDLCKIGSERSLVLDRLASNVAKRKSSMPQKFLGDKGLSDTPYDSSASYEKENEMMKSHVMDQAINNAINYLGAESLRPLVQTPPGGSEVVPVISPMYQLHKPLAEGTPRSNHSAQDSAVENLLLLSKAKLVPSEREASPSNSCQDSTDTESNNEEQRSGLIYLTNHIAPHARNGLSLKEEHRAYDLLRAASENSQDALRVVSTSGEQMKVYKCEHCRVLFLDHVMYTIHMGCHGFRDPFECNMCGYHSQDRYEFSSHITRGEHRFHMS
T6 sequence (Q96SW2 whole entry): as the sequence (Q96SW2 whole entry) above
T6 sequence (Q16531 whole entry partner): as the sequence (Q16531 whole entry partner) above

As to `O=C1CCN(N2C(=O)c3ccc(CN4CCC(N5CCc6cc(F)ccc65)CC4)cc3C2=O)C(=O)N1` [GT-05260, 2-(2,4-dioxotetrahydropyrimidin-1(2H)-yl)-5-((4-(5-fluoroindolin-1-yl)piperidin-1-yl)methyl)isoindoline-1,3-dione], the “GSPT1 substrate protein remaining %” value at GSPT1 was “B (80%< substrate protein remaining % ≤100%)”. Further, on IKZF2, the “IKZF2 substrate protein remaining %” value is on record as “A (0% ≤ substrate protein remaining % ≤80%)”. For the same compound, the “WEE1 substrate protein remaining %” value at WEE1 is on record as “A (0% ≤ substrate protein remaining % ≤80%)”. For the same compound, on IKZF3, the “IKZF3 substrate protein remaining %” value is “B (80%< substrate protein remaining % ≤100%)”. In addition, the “CK1α substrate protein remaining %” value at CK1α is given as “B (80%< substrate protein remaining % ≤100%)”. On IKZF1, the “IKZF1 substrate protein remaining %” value is “A (0% ≤ substrate protein remaining % ≤80%)”.
As for `O=C1CCN(N2C(=O)c3ccc(CN4CC=C(c5ccnc6cc(F)ccc56)CC4)cc3C2=O)C(=O)N1` [GT-05261, 2-(2,4-dioxotetrahydropyrimidin-1(2H)-yl)-5-((4-(7-fluoroquinolin-4-yl)-3,6-dihydropyridin-1(2H)-yl)methyl)isoindoline-1,3-dione], on GSPT1, the “GSPT1 substrate protein remaining %” value is reported as “B (80%< substrate protein remaining % ≤100%)”. Further, the “IKZF2 substrate protein remaining %” value on IKZF2 was “A (0% ≤ substrate protein remaining % ≤80%)”. For the same compound, the “WEE1 substrate protein remaining %” value at WEE1 was “B (80%< substrate protein remaining % ≤100%)”. Besides, the “IKZF3 substrate protein remaining %” value on IKZF3 was “B (80%< substrate protein remaining % ≤100%)”. For the same compound, at CK1α, the “CK1α substrate protein remaining %” value was “B (80%< substrate protein remaining % ≤100%)”. In addition, the “IKZF1 substrate protein remaining %” value on IKZF1 is listed as “B (80%< substrate protein remaining % ≤100%)”.
For `O=C1CCN(N2C(=O)c3ccc(CN4CCN(C(c5ccccc5)c5ccccc5)CC4)cc3C2=O)C(=O)N1` [GT-05267, 5-((4-benzhydrylpiperazin-1-yl)methyl)-2-(2,4-dioxotetrahydropyrimidin-1(2H)-yl)isoindoline-1,3-dione], the “GSPT1 substrate protein remaining %” value at GSPT1 was “A (0% ≤ substrate protein remaining % ≤80%)”. Besides, the “IKZF2 substrate protein remaining %” value on IKZF2 was “B (80%< substrate protein remaining % ≤100%)”. The “WEE1 substrate protein remaining %” value on WEE1 was “B (80%< substrate protein remaining % ≤100%)”. At IKZF3, the “IKZF3 substrate protein remaining %” value is “A (0% ≤ substrate protein remaining % ≤80%)”. The “CK1α substrate protein remaining %” value on CK1α is “A (0% ≤ substrate protein remaining % ≤80%)”. Also, the “IKZF1 substrate protein remaining %” value on IKZF1 is “B (80%< substrate protein remaining % ≤100%)”.
Turning to `O=C1CCN(N2C(=O)c3ccc(CN4CCN(C(c5ccc(F)cc5)c5ccc(F)cc5)CC4)cc3C2=O)C(=O)N1` [GT-05268, 5-((4-(bis(4-fluorophenyl)methyl)piperazin-1-yl)methyl)-2-(2,4-dioxotetrahydropyrimidin-1(2H)-yl)isoindoline-1,3-dione], the “GSPT1 substrate protein remaining %” value on GSPT1 was “A (0% ≤ substrate protein remaining % ≤80%)”. Further, the “IKZF2 substrate protein remaining %” value at IKZF2 is on record as “B (80%< substrate protein remaining % ≤100%)”. Also, the “WEE1 substrate protein remaining %” value on WEE1 is “B (80%< substrate protein remaining % ≤100%)”. For the same compound, at IKZF3, the “IKZF3 substrate protein remaining %” value is on record as “A (0% ≤ substrate protein remaining % ≤80%)”. The “CK1α substrate protein remaining %” value on CK1α is given as “A (0% ≤ substrate protein remaining % ≤80%)”. Further, the “IKZF1 substrate protein remaining %” value on IKZF1 is on record as “B (80%< substrate protein remaining % ≤100%)”.
For the compound `O=C1CCN(N2C(=O)c3ccc(CN4CCN(C(c5ccc(Cl)cc5)c5ccc(Cl)cc5)CC4)cc3C2=O)C(=O)N1` [GT-05269, 5-((4-(bis(4-chlorophenyl)methyl)piperazin-1-yl)methyl)-2-(2,4-dioxotetrahydropyrimidin-1(2H)-yl)isoindoline-1,3-dione], the “GSPT1 substrate protein remaining %” value at GSPT1 is reported as “A (0% ≤ substrate protein remaining % ≤80%)”. In addition, the “IKZF2 substrate protein remaining %” value at IKZF2 is “B (80%< substrate protein remaining % ≤100%)”. On WEE1, the “WEE1 substrate protein remaining %” value is “B (80%< substrate protein remaining % ≤100%)”. The “IKZF3 substrate protein remaining %” value at IKZF3 is “B (80%< substrate protein remaining % ≤100%)”. Besides, the “CK1α substrate protein remaining %” value at CK1α is recorded as “A (0% ≤ substrate protein remaining % ≤80%)”. Moreover, on IKZF1, the “IKZF1 substrate protein remaining %” value is on record as “B (80%< substrate protein remaining % ≤100%)”.
